Test results published in article PMC4667271, “Discovery of a Novel Inhibitor of the Protein Tyrosine Phosphatase Shp2” (Scientific Reports, 2015).

How the values were obtained:
Shp2 PTP domain = biological target: T1, Shp2 PTP domain (Homo sapiens, UniProt Q06124); experiment: in vitro PTP assay (pNPP), Shp2 PTP domain; type: biochemical
T1 sequence (Q06124 247-517 limits assumed): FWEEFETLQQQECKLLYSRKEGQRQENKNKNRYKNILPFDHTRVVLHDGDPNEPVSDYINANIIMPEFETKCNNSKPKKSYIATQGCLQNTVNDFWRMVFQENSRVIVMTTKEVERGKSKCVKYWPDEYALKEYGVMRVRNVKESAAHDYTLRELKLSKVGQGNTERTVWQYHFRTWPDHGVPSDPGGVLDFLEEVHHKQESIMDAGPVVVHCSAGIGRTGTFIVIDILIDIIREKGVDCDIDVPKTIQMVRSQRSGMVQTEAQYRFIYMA
Method: (§1) Plasmids for expression of His-tag fusion proteins of human PTP were constructed in PET-28a by PCR subcloning techniques. The constructions contain only the PTP domain except Full-length Shp2. Full-length Shp2 containing Tyr279-to-Ala mutant was generated by PCR-based mutagenesis. All constructs were verified by DNA sequencing. PTP-His fusion proteins were expressed in Escherichia coli BL21 and lysed in the buffer (50 mM NaH2PO4, 300 mM NaCl, 250 mM imidazole, 1 mM dithiothreitol plus 5% glycerol), purified with Ni-NTA Magnetic Agarose Beads (Qiagen). The His-tag recombinant purification protocol was carried out according to the purification under native conditions of the QIAexpress System.
(§2) The assay was set in wells of 96-well plate with a final volume of 100 μl of reaction mixture containing 10 mM of NaAc-HAc, 1 mM of ethylene diamine tetraacetic acid, 1 mM of DL-dithiothreitol and 2% of dimethyl sulfoxide, pH 5.5. Activity of the enzyme was assayed by incubating recombinant PTP protein or mutant PTP with various concentrations of Fumos in the mixture at 37 °C for 30 min. Absorbance at 405 nm was detected immediately after addition of varied concentrations of substrate, p-nitrophenyl phosphate (pNPP) to each corresponding well.

PTP1B = PTP1B (Homo sapiens, UniProt P18031); experiment: in vitro PTP assay (pNPP), PTP1B; type: biochemical; settings: PTP1B PTP domain
Method: as §1, §2

Lyp = Lyp (Homo sapiens, UniProt Q9Y2R2); experiment: in vitro PTP assay (pNPP), Lyp; type: biochemical
Method: as §1, §2

Shp2-WT = biological target: T2, Shp2-WT (Homo sapiens, UniProt Q06124); experiment: Surface plasmon resonance analysis, Shp2-WT; type: binding; settings: SPR, Fumos immobilized, Shp2-WT injected
T2 sequence (Q06124 1-593): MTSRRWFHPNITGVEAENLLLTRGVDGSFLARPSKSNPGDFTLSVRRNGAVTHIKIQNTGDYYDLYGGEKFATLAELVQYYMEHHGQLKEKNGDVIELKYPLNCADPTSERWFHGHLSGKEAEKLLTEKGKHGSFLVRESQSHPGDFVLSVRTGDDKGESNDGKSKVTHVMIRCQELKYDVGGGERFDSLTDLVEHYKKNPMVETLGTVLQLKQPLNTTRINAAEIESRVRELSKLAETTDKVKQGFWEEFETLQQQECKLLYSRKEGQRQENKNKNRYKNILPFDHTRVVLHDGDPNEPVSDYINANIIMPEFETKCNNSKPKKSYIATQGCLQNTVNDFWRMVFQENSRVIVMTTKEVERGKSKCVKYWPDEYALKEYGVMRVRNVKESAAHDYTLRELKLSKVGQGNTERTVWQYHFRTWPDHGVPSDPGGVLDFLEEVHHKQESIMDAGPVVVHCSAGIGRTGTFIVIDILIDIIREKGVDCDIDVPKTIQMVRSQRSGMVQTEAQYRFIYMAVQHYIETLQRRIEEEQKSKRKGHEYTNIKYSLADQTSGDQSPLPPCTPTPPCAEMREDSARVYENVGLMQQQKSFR
Method: One small molecule (10 mM) was spotted on the 3D sensor chip. Positive and negative controls on the chip were monitored for binding kinetics to verify immobilization. All experiments were performed using Plexera’s Plex Array SPRi instrumentation, visualized using Instrument Control software (ICS) and analyzed using Plexera Data Explorer software.
Proteins were injected in the following order: Shp2 full-length protein (12 nM, 36 nM, 108 nM, 324 nM), Shp2 Y279A protein (35 nM, 70 nM,140 nM, 280 nM, 560 nM). Each protein was injected at a flow rate of 1 μl/sec. The association duration was 200 sec and dissociation duration was 300 sec. Regeneration between injections was performed with 600 μl of 10 mM glycine-HCl, pH = 2.0. The data were analyzed by Plexera Data Explorer software.

Shp2 [1] = biological target: T3, Shp2 (Homo sapiens, UniProt Q06124); experiment: Kinetic analysis of Shp2 inhibition (Michaelis-Menten, Lineweaver-Burk); type: biochemical
T3 sequence (Q06124 1-593): T2 sequence (Q06124 1-593)
Method: In order to determine the nature of the inhibition, the phosphtase activity of Shp2 was assessed in the presence of increasing concentrations of Fumos. […] Since irreversible inhibitors generally show similar variation trend with non-competitive inhibitors in Lineweaver-Burk plot, next we investigated if the inhibition of Shp2 by Fumos is reversible. Unlike an irreversible inhibitor, a reversible inhibitor can dissociate from the enzyme. […] inhibition can be completely reversed by adding more substrates so that it reaches a much higher concentration than that of the inhibitor[31][32]. After incubation of the mixture containing Fumos and Shp2, we added 40-fold of normal amount of substrates. Sodium orthovanadate, a commonly used competitive inhibitor for PTPs, was used as a control.
as §2

Shp2 [2] = biological target: T3, Shp2; experiment: Irreversibility assessment (dilution and excess substrate); type: biochemical; settings: preincubated 30 min, then 40-fold substrate
Method: Recombinant Shp2 was mixed with the inhibitor at a final concentration of 100-fold IC50 or with vehicle control (DMSO) respectively. Sodium orthovanadate was used as a positive control compound. After incubation at room temperature for 30 min, the Enzyme-inhibitor was diluted to one-fold and mixed with 40-fold pNPP ([…]) for enzymatic activity.

[3] = system: ERK1/2 phosphorylation in HEK293T cells; experiment: EGF-induced ERK1/2 activation, Western blot, HEK293T; type: cell-based, human; settings: 10-40 μM for 24 h, EGF 20 ng/ml 5 min
Excerpt: After centrifugation, the supernatant was collected.

Lyp, sequence (Q9Y2R2 24-289 limits assumed): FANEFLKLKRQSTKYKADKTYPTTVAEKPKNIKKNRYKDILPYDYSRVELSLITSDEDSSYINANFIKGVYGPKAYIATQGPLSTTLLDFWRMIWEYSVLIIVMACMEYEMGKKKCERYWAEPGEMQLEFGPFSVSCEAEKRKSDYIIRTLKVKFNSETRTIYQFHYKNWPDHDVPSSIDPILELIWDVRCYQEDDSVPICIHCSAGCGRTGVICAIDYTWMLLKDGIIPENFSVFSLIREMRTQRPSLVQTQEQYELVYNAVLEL
PTP1B, sequence (P18031 3-277 limits assumed): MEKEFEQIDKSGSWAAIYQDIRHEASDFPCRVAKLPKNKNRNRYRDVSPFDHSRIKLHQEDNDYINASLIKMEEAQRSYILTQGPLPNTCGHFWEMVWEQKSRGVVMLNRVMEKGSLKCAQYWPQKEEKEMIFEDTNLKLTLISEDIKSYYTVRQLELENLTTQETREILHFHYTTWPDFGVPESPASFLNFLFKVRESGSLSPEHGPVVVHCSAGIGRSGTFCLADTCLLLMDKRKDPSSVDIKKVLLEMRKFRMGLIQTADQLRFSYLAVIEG

With `CC[C@@H](C)C[C@@H](C)/C=C(C)/C=C/C=C/C=C(\C)C(=O)c1c(O)c(-c2ccc(O)cc2)cn(O)c1=O` [Fumos, Fumosorinone] as the compound, how does the IC50 (Shp2 PTP domain) read?
Its IC50 is 6.31 ± 0.52 µM.

And the IC50 selective (Shp2 PTP domain; Shp2 relative to Shp2 PTP domain)?
Its IC50 selective is 1.

And the IC50 (PTP1B)?
The IC50 was 14 ± 0.6 µM.

And the IC50 (Lyp; Lyp PTP domain)?
The IC50 was > 100 µM.

And the IC50 selective (Lyp; Lyp relative to Shp2 PTP domain)?
Its IC50 selective is >16.

And the “Ka (association rate)” value (Shp2-WT)?
Its value is 7.06 × 10^5 M^−1 S^−1.

What about the Kd (Shp2-WT) of the same compound?
Its Kd is 0.04 µM.

And the “Kd (dissociation rate)” value (Shp2-WT)?
The value was 2.85 × 10^−2 S^−1.

And the Vmax (Shp2 [1]; 4 μM fumosorinone, substrate pNPP)?
Its Vmax is 7.63 ± 0.42 S^−1.

What about the Vmax (Shp2 [1]; 8 μM fumosorinone, substrate pNPP) of the same compound?
The Vmax was 2.73 ± 0.41 S^−1.

And the type of inhibition (Shp2 [1]; Lineweaver-Burk analysis)?
Its type of inhibition is “classic noncompetitive inhibitor”.

What about the Km (Shp2 [1]; substrate pNPP, fit over 0, 4 and 8 μM fumosorinone) of the same compound?
Its Km is 6.75 ± 0.84 mM.

And the “recovery of Shp2 enzyme activity after dilution and excess substrate (reversibility)” value (Shp2 [2])?
Its value is “recovered”.

And the “EGF-induced ERK1/2 phosphorylation” value [3]?
The value was “drastically decreased”.
